# Measurements reported in patent US8481042B2, “Conjugates of pyrrolo[1,4]benzodiazepine dimers as anticancer agents” (priority 2009, dated 2013).
# pIC50: −log10 of the molar value.
# Experiments:
# Format in all cases: cell-based
# HCT116 cells = assay: Inhibition of the proliferation of HCT116 cells by compounds of formula IA (14C-thymidine pulse at 96 h); conditions: Homo sapiens, HCT-116; HCT116, 3 days culture, 14C-thymidine incorporation at 96 h
# Method: (§1) Evaluation of the Inhibition of the Proliferation of the MDA-MB-231, MDA-A1 and HCT116 Cell Lines by the Compounds of Formula IA with ZbRb=−OMe and Y═Y′=−OMe
# (§2) The MDA-MB-231, MDA-A1 or HCT116 cells in their exponential growth phase are trypsinized and resuspended in their respective culture medium (DMEM/F12 Gibco #21331, 10% FCS Gibco #10500-056, […] Gibco #25030 for the MDA cells; DMEM Gibco #11960, 10% FCS Gibco #10500-056, 2 mM glutamine Gibco #25030 for the HCT116 cells). The cell suspension is seeded in Cytostar 96-well culture plates (GE Healthcare Europe, #RPNQ0163) in the complete culture medium containing serum at a density of 5000 cells/well (MDA-MB-231, MDA-A1, HCT116). After incubation for 4 hours, successive dilutions of the tomaymycin dimers are added to the wells in triplicate for each concentration. The cells are cultured for 3 days at 37° C. under an atmosphere containing 5% CO2 in the presence of the cytotoxic agents. On the 4th day, 10 μl of a ^14C-thymidine solution (0.1 μCi/well, Perkin Elmer #NEC56825000) are added to each well. The incorporation of ^14C-thymidine is measured 96 hours after the start of the experiment using a MicroBeta radioactivity counter (Perkin Elmer). The data are expressed in the form of a % of survival by determining the ratio between the count obtained with the cells treated with the cytotoxic agent and the count obtained with the cells of the control wells (treated with the culture medium alone).
# MDA-A1 cells = assay: Inhibition of the proliferation of MDA-A1 cells by compounds of formula IA (14C-thymidine pulse at 96 h); conditions: MDA-A1, 3 days culture, 14C-thymidine incorporation at 96 h
# Method: as §1, §2
# MDA-MB-231 cells = assay: Inhibition of the proliferation of MDA-MB-231 cells by compounds of formula IA (14C-thymidine pulse at 96 h); conditions: Homo sapiens; MDA-MB-231, 3 days culture, 14C-thymidine incorporation at 96 h; read-out: Inhibition of the proliferation (14C-thymidine pulse at 96 h) IC50 MDA-MB231
# Method: as §1, §2
SMILES,pIC50 (HCT116 cells),pIC50 (MDA-A1 cells),pIC50 (MDA-MB-231 cells)
C/C=C1\C[C@H]2C=Nc3cc(OCc4cc(OCCN(C)CC(C)(C)SCC(=O)NCCOCCOCCOCCOCCC(=O)OC)cc(COc5cc6c(cc5OC)C(=O)N5C/C(=C/C)C[C@H]5C=N6)n4)c(OC)cc3C(=O)N2C1,10.52,8.70,11.05
C/C=C1\C[C@H]2C=Nc3cc(OCc4cc(OCCN(C)CC(C)(C)SCC(=O)N(C)CCOCCOCCOCCOCCC(=O)OC)cc(COc5cc6c(cc5OC)C(=O)N5C/C(=C/C)C[C@H]5C=N6)n4)c(OC)cc3C(=O)N2C1,9.92,8.65,10.15
C/C=C1\C[C@H]2C=Nc3cc(OCc4cc(COc5cc6c(cc5OC)C(=O)N5C/C(=C/C)C[C@H]5C=N6)cc(C(C)(C)SCC(=O)NCCOCCOCCOCCOCCC(=O)OC)c4)c(OC)cc3C(=O)N2C1,9.90,< 8.00,10.08
C/C=C1\C[C@H]2C=Nc3cc(OCc4cc(OCCN5CCN(C(=O)CCC(C)(C)SCC(=O)NCCOCCOCCOCCOC(=O)OC)CC5)cc(COc5cc6c(cc5OC)C(=O)N5C/C(=C/C)C[C@H]5C=N6)n4)c(OC)cc3C(=O)N2C1,8.90,< 8.00,9.35
